Literature values, collected in patent US9221758B2, “Methods of synthesizing pharmaceutical salts of a factor Xa inhibitor” (Millennium Pharmaceuticals, Inc., priority 2006, dated 2015).
Read-outs that look alike come from different tables or passages of the source.

Tests used:
[1] = statement in words, information in US2007/0112039
[2] = molecular target: Factor Xa (Homo sapiens, UniProt P00742); conditions: statement in words, as discussed in U.S. Pat. No. 6,376,515
Factor Xa, sequence (P00742 235-488 limits assumed): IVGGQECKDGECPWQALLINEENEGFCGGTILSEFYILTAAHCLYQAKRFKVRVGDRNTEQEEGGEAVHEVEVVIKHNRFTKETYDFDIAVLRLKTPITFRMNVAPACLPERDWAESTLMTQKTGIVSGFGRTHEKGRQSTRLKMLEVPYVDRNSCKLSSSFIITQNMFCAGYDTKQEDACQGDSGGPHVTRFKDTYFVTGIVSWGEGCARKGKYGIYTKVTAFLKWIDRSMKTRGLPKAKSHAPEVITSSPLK
Factor Xa, sequence (P00742 41-179 partner limits assumed): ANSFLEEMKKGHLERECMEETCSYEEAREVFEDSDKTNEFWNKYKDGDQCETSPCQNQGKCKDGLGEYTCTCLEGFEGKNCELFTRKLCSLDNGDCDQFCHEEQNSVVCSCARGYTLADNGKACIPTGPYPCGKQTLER

| thermal and hydrolytic stability [1] | Xa inhibitor potency [2] | Structure (SMILES) | thermal and hydrolytic stability ([1]; listed as maleate salt) |
| --- | --- | --- | --- |
| excellent |  | COc1ccc(NC(=O)c2ccc(C(=N)N(C)C)cc2)c(C(=O)Nc2ccc(Cl)cn2)c1 | best thermal and hydrolytic stability observed |
|  | potent Xa inhibitor | COc1ccc(NC(=O)c2ccc(C(=N)N(C)C)cc2)c(C(=O)Nc2ccc(Cl)cn2)c1 [compound of Formula I] |  |
